Assay results reported in patent publication US5294605A, “Amphiphilic peptide compositions and analogues thereof” (The Scripps Research Institute, priority 1991, dated 1994).
Like-named read-outs stand apart in the source and are kept apart here. Square brackets hold non-standard residues; d marks the D form. Ends that are not written are not given here. Met(O) = CS(=O)CC[C@H](N)C(=O)O

Experiments:
Type in all cases: cell-based
Pseudomonas aeruginosa [1] = conditions: LB medium
Description: (§1) For the following Examples 3-9, antimicrobial assays were carried out in 96-well tissue culture plates. Each well was incubated with a given microorganism (Escherichia coli, Staphylococcus epidermidis, or Pseudomonas aeruginosa) suspended in LB medium. Upon the addition of the parent peptide having the structural formula hereinabove described, or its substitution analogues, or of Peptide I (dissolved in 1 X PBS, pH 7.0) each well contained a final cell density of 1.0×10^6 colony forming units (CFU)/ml. The final peptide concentrations ranged from 1.5 μg/ml to greater than 100 μg/ml.
(§2) Addition of peptides to the wells was defined as time zero. At twenty hours, the plates were placed in a Titertek Multiskan apparatus and the O.D.620 determined. The plates as well as the initial innoculum were incubated at 37° C.
(§3) Five wells per plate contained media alone, while five others contained medium plus cells. These controls were used to eliminate the possibility of media contamination while providing a measure of uninhibited growth of the microorganisms.
(§4) The degree of peptide activity was determined by comparing the substitution analogues with uninhibited growth of the control cells over a twenty-hour period.
(§5) as hereinabove described and analogues thereof wherein a methionine sulfoxide residue was substituted for various amino acid residues of the parent peptide were prepared as hereinabove described in Example 1 and tested for minimum inhibitory concentration with respect to E. coli, P. aeruginosa, and S. epidermidis at a concentration given in μg/ml, and for percent hemolysis of human red blood cells as hereinabove described in Example 2. The minimum inhibitory concentration and percent hemolysis (at a concentration of 100 μg/ml) are listed below in Table I. As used herein, the heading "Amino Acid Residue Substituted" refers to the number of the amino acid residue in the peptide which is substituted with a desired amino acid residue. All other residues remain the same as that of the normal peptide sequence. The term "Minimum Inhibitory Concentration" (MIC) as used herein indicates the minimum concentration of peptide in μg/ml needed to achieve 100 percent effective growth inhibition of the organism.

Escherichia coli [2] = conditions: LB medium
Description: as §1, §2, §3, §4, §5

[3] = system: Staphylococcus epidermidis; assay: Antimicrobial assay in 96-well plates, LB medium (Example 2), MIC
Pseudomonas aeruginosa [4] = assay: Antimicrobial assay for deletion analogues (Example 10), MIC; conditions: Table VII; 3.5×10^5 CFU/ml, 20 hours, LB medium
Description: (§6) For the deletion analogues of the parent peptide further described in Examples 11 and 12, antimicrobial assays were carried out in 96-well tissue culture plates. Each well was incubated with a given microorganism (Escherichia coli, Staphylococcus epidermidis, Pseudomonas aeruginosa, or Staphylococcus aureus) suspended in LB medium. Upon addition of the parent peptide or its deletion analogues (dissolved in 1×PBS<pH7.0), each well contained a final cell density of 1.3×10^5 colony forming units (CFU)/ml of E. coli, or 3.5×10^5 CFU/ml P.aeruginosa, or 3.9×10^5 CFU/ml S. Aureus or 3.0×10^5 CFU/ml S. epidermidis. The final peptide concentrations ranged from 1.5 μg/ml to greater than 100 μg/ml. Addition of peptide to the wells was defined as time zero. At twenty hours, the plates were placed in a Titertek Multiskan apparatus and the O.D. 620 determined. The plates as well as the initial innoculum were incubated at 37° C. Five wells per plate contained medium alone, whereas five others contained medium plus cells. These controls were used to eliminate the possibility of medium contamination, while providing a measure of uninhibited growth of the microorganisms. The degree of peptide activity was determined by comparing the deletion analogues with uninhibited growth of the control cells over a twenty-hour period. The effective growth inhibitation of the deletion analogues is listed in the examples and tables below.

[5] = system: Staphylococcus epidermidis; assay: as above; conditions: Table VII; 3.0×10^5 CFU/ml, 20 hours, LB medium
Description: as §6

Escherichia coli [6] = assay: as above; conditions: Table VII; 1.3×10^5 CFU/ml, 20 hours, LB medium
Description: as §6

Staphylococcus aureus = assay: as above; conditions: Table VII; 3.9×10^5 CFU/ml, 20 hours, LB medium
Description: as §6

[7] = Table II, lysine substitutions, 20 hours
[8] = Table IV, analogues substituted at residues 4 and 11, 20 hours
[9] = Table VI, methionine sulfoxide diastereomer fractions, 20 hours

Substance | Minimum Inhibitory Concentration P. Aeruginosa (Pseudomonas aeruginosa [4]) | Minimum Inhibitory Concentration S. epidermidis [5] | Minimum Inhibitory Concentration E. coli (Escherichia coli [6]) | Minimum Inhibitory Concentration S. aureus (Staphylococcus aureus) | other results
Ac-LKLKKKLLKKLKKLLKKL-NH2 [4 (SEQ ID NO: 25)] | – | – | – | – | Min. Inhibitory Concentration P. Aeruginosa (Pseudomonas aeruginosa [1]; [7]): 30 µg/mL; Min. Inhibitory Concentration E. Coli (Escherichia coli [2]; [7]): 2.5 µg/mL; Min. Inhibitory Concentration S. epidermidis [3, 7]: 5 µg/mL
Ac-LKLLKKLLKKLKLLKKL-NH2 [12 (X(SEQ ID NO: 53) --NH2)] | 8 µg/mL | 4 µg/mL | 8 µg/mL | 32 µg/mL | –
Ac-LKKLKKLLKKLKKLLKKL-NH2 [3 (SEQ ID NO: 24)] | – | – | – | – | Min. Inhibitory Concentration P. Aeruginosa (Pseudomonas aeruginosa [1]; [7]): 30 µg/mL; Min. Inhibitory Concentration E. Coli (Escherichia coli [2]; [7]): 5 µg/mL; Min. Inhibitory Concentration S. epidermidis [3, 7]: 10 µg/mL
Ac-LKLKKKLLKKMKKLLKKL-NH2 [Analogue 8] | – | – | – | – | Min. Inhibitory Concentration P. Aeruginosa (Pseudomonas aeruginosa [1]; [8]): 5 µg/mL; Min. Inhibitory Concentration E. Coli (Escherichia coli [2]; [8]): 5 µg/mL; Min. Inhibitory Concentration S. epidermidis [3, 8]: 5 µg/mL
Ac-LKLLKKLLKKKKLLKKL-NH2 [11 (X(SEQ ID NO: 52) --NH2)] | 8 µg/mL | 2 µg/mL | 64 µg/mL | 256 µg/mL | –
Ac-LKLLKKLLKLKKLLKKL-NH2 [9 (X(SEQ ID NO: 51) --NH2)] | 16 µg/mL | 4 µg/mL | 8 µg/mL | 64 µg/mL | –
Ac-LKLLKKLLKKLKKLLKL-NH2 [16 (X(SEQ ID NO: 55) --NH2)] | 16 µg/mL | 4 µg/mL | 8 µg/mL | 32 µg/mL | –
11 (SEQ ID NO: 15) 20/80: residue 11 methionine sulfoxide analogue, fraction by proportion of L-methionine-L-/D-sulfoxide (assignment undetermined) (LKLLKKLLKK[Met(O)]KKLLKKL; also: sulfoxide L-/D- 20/80 mixture, assignment undetermined) | – | – | – | – | Min. Inhibitory Concentration P. Aeruginosa (Pseudomonas aeruginosa [1]; [9]): 5 µg/mL; Min. Inhibitory Concentration E. Coli (Escherichia coli [2]; [9]): 10 µg/mL; Min. Inhibitory Concentration S. epidemidia [3, 9]: 2.5 µg/mL
Ac-LKLLKLLKKLKKLLKKL-NH2 [5 (X(SEQ ID NO: 49) --NH2)] | 32 µg/mL | 2 µg/mL | 8 µg/mL | 64 to 128 µg/mL | –
Ac-LLLKKLLKKLKKLLKKL-NH2 [2 (X(SEQ ID NO: 47) --NH2)] | 16 to 32 µg/mL | 4 µg/mL | 8 to 16 µg/mL | 32 to 64 µg/mL | –
Ac-KLLKKLLKKLKKLLKKL-NH2 [1 (X(SEQ ID NO: 46) --NH2)] | 16 to 32 µg/mL | 4 µg/mL | 16 µg/mL | 32 µg/mL | –
